Results from ChEMBL document CHEMBL3430912, “GSK Tres Cantos Anti-Kinetoplastid Screening (TCAKS) Data”.

Key:
Leishmania donovani [1] = assay: GSK_TCAKS: pIC50 Leishmania donovani Imaging: THP-1 Host Macrophages. Assay plates (384-well) were prepared by adding 250nL of compound to each well. For single shot assay, the final compound concentration was 5 uM. […] Automated image analysis was performed with a script developed on Acapella High Content Imaging and Analysis Software (PerkinElmer). Output: THP-1 cell count were reported for each well.; format: functional, organism-based, Homo sapiens
[2] = tested on: Trypanosoma brucei brucei; assay: GSK_TCAKS: pIC50 Trypanosoma brucei viability assay using fluorescence intensity. Assay plates (1536-well) were prepared by dispensing 25nL of compound solution per well using an Echo acoustic dispenser (Labcyte).; format: functional, organism-based; conditions: Lister 427, 2 h
Leishmania donovani [3] = assay: GSK_TCAKS: pIC50 Leishmania donovani viability assay using fluorescence intensity. Assay plates (1536-well) were prepared by adding 30nL per well of compound. For single shot assay, the final compound concentration was 5uM. […] Briefly, eGFP LdBOB axenic amastigotes were harvested, fixed and counted in a CASY cell counter (Roche-Applied Science). A final concentration of 1.5 * 10^5 cells per well were prepared in amastigote media containing 500 U/mL penicillin/streptomycin (Invitrogen) and 6uL was dispensed to each experimental well using a Multidrop Combi dispenser (Thermo Scientific). 6uL of assay media was dispensed to control columns used as reference for 100% compound response. Following incubation for 72 h at 37C, 5% CO2, 2 uL of resazurin was added to each well at a final concentration of 0.5 mM in phosphate buffered saline (PBS) with IGEPAL (Sigma-Aldrich), 0.05% (v/v).; format: functional, organism-based
Leishmania donovani [4] = assay: GSK_TCAKS: pIC50 Leishmania donovani Imaging: Infected Macrophages. Assay plates (384-well) were prepared by adding 250nL of compound to each well. For single shot assay, the final compound concentration was 5 uM. […] Automated image analysis was performed with a script developed on Acapella High Content Imaging and Analysis Software (PerkinElmer). Output: Percent of infected macrophage cells were reported for each well.; format: functional, organism-based, Homo sapiens; conditions: THP-1
Leishmania donovani [5] = assay: GSK_TCAKS: pIC50 Leishmania donovani Imaging: Amastigotes/Macrophages. Assay plates (384-well) were prepared by adding 250nL of compound to each well. For single shot assay, the final compound concentration was 5 uM. […] Automated image analysis was performed with a script developed on Acapella High Content Imaging and Analysis Software (PerkinElmer). Output: Average number of amastigotes per macrophage cell were reported for each well.; format: functional, organism-based, Homo sapiens; conditions: THP-1
Trypanosoma cruzi [6] = assay: GSK_TCAKS: pIC50 Trypanosoma cruzi viability assay using beta-GAL activity. This assay was run at single shot at 5uM compound concentration per well. The biological reagents consisted of NIH-3T3 host cells and trypomastigotes parasitic cells; both cell types were set to a 3.3 * 10^5 cells/mL dilution in assay DMEM by means of a CASY cell counter device using a 60um capillary. 6 uL of the mixture were dispensed per well (about 1 * 10^3 host-cells and 1 * 10^3 parasites) with a Multidrop Combi dispenser. […] In all wells, the percentage of DMSO never exceeded 0.5%. Plates incubated for four days at 37C, 5% CO2. The substrate used for the assay fluorescence intensity (FLINT) readout was resorufin-beta-D-galactopiranoside (Sigma-Aldrich) at 5uM per well. It was diluted in PBS supplemented with the soft detergent Igepal (Fluka).; format: functional, organism-based, Mus musculus; conditions: Tulahuen, NIH3T3
Trypanosoma cruzi [7] = assay: GSK_TCAKS: pIC50 Trypanosoma cruzi Imaging: Amastigotes/Cell. […] Cells were then washed once with PBS before infection. T. cruzi trypomastigotes, collected at days 5 to 8 after infection from LLC-MK2 parasite infected cultures, were allowed to swim out for 4h at 37C from a centrifuged pellet (2,500 rpm/10 min/room temperature). Trypomastigotes were then collected and counted in a CASY Cell Counter. Trypomastigotes, in supplemented DMEM, were added to H9c2 cultures in a multiplicity of infection of 1 and incubated for 18 h. Cells were washed once with PBS before incubation of the infected H9c2 monolayer with trypsin (Life-Technologies) to detach cells from the flask. Cells were counted in a CASY Cell Counter using a 150 um capillary and their density set at 5 * 10^4 cells per mL in supplemented assay DMEM. Infected H9c2 were dispensed into 384-well poly-lysine coated assay plates at 50uL per well using a Multidrop Combi dispenser. After seeding them, the plates were incubated at 37C, 5% CO2 for 72h. Cultures were then fixed and stained by addition of 50 uL of a solution containing 8% formaldehyde and 4 uM DRAQ5 DNA dye (BioStatus, UK) per well. […] Five images were collected per well for reliable statistical analysis. Automated image analysis was performed with a script developed on Acapella High Content Imaging and Analysis Software (PerkinElmer). Output: number of amastigotes per cell as infection level measurement.; format: functional, organism-based, Rattus norvegicus; conditions: H9c2, 4 h
[8] = tested on: Trypanosoma brucei brucei; assay: GSK_TCAKS: pIC50 Trypanosoma brucei viability assay using luminiscence. Assay plates (1536-well) were prepared. T. brucei cultures were harvested and counted in a CASY cell counter. A parasite suspension was prepared at a final concentration of 5 * 10^4 cells/mL in complete HMI9 medium and 6uL was dispensed to all wells containing compounds using a Multidrop Combi dispenser. 6uL of HMI9 media with 0.4% DMSO were dispensed to control columns. Plates were incubated for 24 h at 37C, 5% CO2 then tempered for 10 min at room temperature. ATP content was quantified by adding 4 uL of CellTiter-Glo Reagent (Promega) according to the manufacturer's instructions. Luminescence was measured using a ViewLux.; format: functional, organism-based; conditions: Lister 427, CASY
Trypanosoma cruzi [9] = assay: (§1) GSK_TCAKS: pIC50 Trypanosoma cruzi Imaging: Infected Cells. […] Cells were then washed once with PBS before infection. T. cruzi trypomastigotes, collected at days 5 to 8 after infection from LLC-MK2 parasite infected cultures, were allowed to swim out for 4h at 37C from a centrifuged pellet (2,500 rpm/10 min/room temperature). Trypomastigotes were then collected and counted in a CASY Cell Counter. Trypomastigotes, in supplemented DMEM, were added to H9c2 cultures in a multiplicity of infection of 1 and incubated for 18 h. Cells were washed once with PBS before incubation of the infected H9c2 monolayer with trypsin (Life-Technologies) to detach cells from the flask. Cells were counted in a CASY Cell Counter using a 150 um capillary and their density set at 5 * 10^4 cells per mL in supplemented assay DMEM. Infected H9c2 were dispensed into 384-well poly-lysine coated assay plates at 50uL per well using a Multidrop Combi dispenser. After seeding them, the plates were incubated at 37C, 5% CO2 for 72h. Cultures were then fixed and stained by addition of 50 uL of a solution containing 8% formaldehyde and 4 uM DRAQ5 DNA dye (BioStatus, UK) per well. […] Five images were collected per well for reliable statistical analysis. Automated image analysis was performed with a script developed on Acapella High Content Imaging and Analysis Software (PerkinElmer). Output: percentage of infected cells per well as a second infection marker.; format: functional, organism-based, Rattus norvegicus; conditions: H9c2, 4 h
[10] = GSK_TCAKS: pIC50 HepG2 human cell line viability assay using luminiscence. […] Seeding density was checked to ensure that new mono-layers were not more than 50% confluent at the time of harvesting. Cell suspension was added to 500 mL of the same medium at a final density of 1.2 * 10^5 cells/mL. This cell suspension was dispensed (25 uL, 3000 cells per well) into 384-well clear-bottom plates using a Multidrop Combi dispenser. Prior to addition of the cell suspension, the screening compounds (250 nL) were pre-dispensed into the plates with an Echo liquid handler. Plates were incubated for 48 h at 37C, 5% CO2. After incubation, plates equilibrated at room temperature for 30 min before proceeding to develop the luminescent signal. The signal developer, CellTiter-Glo Reagent, was allowed to equilibrate at room temperature for 30 min and added to the plates (25uL per well) using a Multidrop Combi dispenser. Plates were left for 10 min at room temperature for stabilization and then read using a ViewLux.; format: toxicity, cell-based
Trypanosoma cruzi [11] = assay: as §1, with “H2C9” for “Trypanosoma cruzi”, “H9c2 Host Cardiomyocytes.” for “Infected Cells.”, “Number” for “percentage”, “H9c2 Host Cardiomyocytes nuclei to determine drug-related cytotoxicity.” for “infected cells per well as a second infection marker.”; format: functional, organism-based, Rattus norvegicus; conditions: H9c2, 4 h
[12] = biological target: Sterol 14-alpha demethylase (Trypanosoma cruzi (strain CL Brener), UniProt Q7Z1V1); assay: GSK_TCAKS: pIC50 CYP51 from Trypanosoma cruzi.; format: functional
Chain of Sterol 14-alpha demethylase (Q7Z1V1 whole entry): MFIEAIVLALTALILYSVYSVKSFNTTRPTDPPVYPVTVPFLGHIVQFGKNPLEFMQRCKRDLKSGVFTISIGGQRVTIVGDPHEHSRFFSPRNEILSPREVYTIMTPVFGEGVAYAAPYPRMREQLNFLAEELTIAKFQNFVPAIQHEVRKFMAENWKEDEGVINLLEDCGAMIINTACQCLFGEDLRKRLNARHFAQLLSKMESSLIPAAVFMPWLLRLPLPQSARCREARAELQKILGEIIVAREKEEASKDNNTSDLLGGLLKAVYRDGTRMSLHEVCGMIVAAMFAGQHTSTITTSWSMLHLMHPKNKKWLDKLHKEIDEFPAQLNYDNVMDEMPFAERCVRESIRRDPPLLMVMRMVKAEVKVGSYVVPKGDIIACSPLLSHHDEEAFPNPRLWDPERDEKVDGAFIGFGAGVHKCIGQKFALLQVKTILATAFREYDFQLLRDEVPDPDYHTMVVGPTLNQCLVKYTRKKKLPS

| SMILES | IC50 (Leishmania donovani [1]) | IC50 [2] | IC50 (Leishmania donovani [3]) | IC50 (Leishmania donovani [4]) | IC50 (Leishmania donovani [5]) | IC50 (Trypanosoma cruzi [6]) | IC50 (Trypanosoma cruzi [7]) | IC50 [8] | IC50 (Trypanosoma cruzi [9]) | IC50 at 48 h [10] | IC50 (Trypanosoma cruzi [11]) | IC50 [12] |
| --- | --- | --- | --- | --- | --- | --- | --- | --- | --- | --- | --- | --- |
| CCCn1c(NC(=O)CCn2cc(Br)cn2)nc2ccccc21 | > 50.1 µM | 7.94 µM | 10 µM | 10 µM | 5.01 µM | 5.01 µM | 2.51 µM | 7.94 µM | 6.31 µM | > 100 µM | 25.1 µM | 10 µM |
| CCn1c(NC(=O)Cc2ccc(F)cc2)nc2ccccc21 | > 50.1 µM | 3.16 µM | 10 µM | 10 µM | 6.31 µM | 5.01 µM | 3.98 µM | 5.01 µM | 7.94 µM | > 100 µM | > 50.1 µM | 25.1 µM |
| N#Cc1cc(-c2ccnc(Nc3cccc(CN4CCOCC4)c3)n2)ccc1NCCN | 7.94 µM | 0.398 µM | 3.98 µM | 1.58 µM | 0.794 µM | 7.94 µM | 15.8 µM | 1.26 µM | 31.6 µM | 50.1 µM | 7.94 µM | 31.6 µM |
| CN(C)Cc1cccc(Nc2nccc(-c3ccc(NCCN)c(C#N)c3)n2)c1 | 6.31 µM | 0.0501 µM | 2.51 µM | 1.26 µM | 0.501 µM | 1 µM | 1.58 µM | 0.2 µM | 10 µM | 25.1 µM | 2 µM | 6.31 µM |
| O=C(CC1(O)C(=O)N(Cc2cccs2)c2ccc(Br)cc21)c1cccnc1 (configuration not stated) | 20 µM | 0.631 µM | > 50.1 µM | > 50.1 µM | > 50.1 µM | 5.01 µM | 25.1 µM | 0.794 µM | 39.8 µM | 63.1 µM | 3.98 µM | 12.6 µM |
| COc1cnc2ccc(=O)n(CCN3CCC(NC/C=C/c4cc(F)ccc4F)CC3)c2c1 | 39.8 µM | 0.398 µM | 5.01 µM | 5.01 µM | 2 µM | 0.0158 µM | 0.01 µM | 0.794 µM | 0.02 µM | 63.1 µM | 15.8 µM | 15.8 µM |
| Cc1cc2cc(CNc3ccc4c(c3)OCO4)c(=O)n(CCO)c2cc1C | 39.8 µM | 25.1 µM | 6.31 µM | 0.501 µM | 0.251 µM | 0.631 µM | 0.2 µM | > 39.8 µM | 0.251 µM | > 100 µM | > 50.1 µM | 10 µM |
| Cc1nn2c(=O)c3c([nH]c2c1-c1ccc(Br)cc1)CCCC3 | > 50.1 µM | 0.398 µM | 10 µM | > 50.1 µM | 39.8 µM | 1 µM | 0.794 µM | 0.794 µM | 1.58 µM | > 100 µM | > 50.1 µM | > 100 µM |
| COc1ccc(C(=O)NC2CCN(CCn3c(=O)ccc4ncc(F)cc43)CC2)cc1Cl | > 50.1 µM | 0.126 µM | 3.98 µM | > 50.1 µM | 15.8 µM | 0.501 µM | 0.316 µM | 0.251 µM | 0.631 µM | > 100 µM | > 50.1 µM | 15.8 µM |
| c1ccc2[nH]c(-c3ccc(N4CCCC4)nc3)nc2c1 | 31.6 µM | 0.794 µM | 5.01 µM | > 50.1 µM | > 50.1 µM | 1 µM | 1 µM | 1 µM | 1.58 µM | > 100 µM | > 50.1 µM | > 100 µM |
| CC(c1ccc2c(c1)CCCC2)N(C)c1ncc2c(N)nc(N)nc2n1 (configuration not stated) | 25.1 µM | 15.8 µM | 2.51 µM | 2 µM | 0.794 µM | 0.0316 µM | 0.01 µM | 12.6 µM | 0.0316 µM | 50.1 µM | 10 µM | 25.1 µM |
